Legend:
[1] = test system: human cancer cells in 3D-culture; conditions: Gomes et al., Oncogene 2015; cited from earlier work
[2] = test system: parental and rs-monolayer population of Huh7 cells; experiment: Chemosensitivity assay (cell viability after 3-BrPA); assay type: cell-based, human; conditions: Huh7 (luc-Huh7) cells, rs-monolayer vs parental monolayer, FIG. 7B
Method: Assessment of the chemosensitivity of parental cell population and rs-monolayer population was performed using the antiglycolytic agent, 3-bromopyruvate (3-BrPA). In brief, cells were plated in 96-well plates the day before treatment. Analysis of cell viability following the addition of 3-BrPA was performed as described other cell lines^22.

| Structure (SMILES) | Sensitivity of 3D-culture compared with corresponding monolayer culture [1] | IC50 of rs-monolayer cells compared to the parental population [2] | IC50 of rs-monolayer cells compared to the parental population ([2]; listed as 3-bromopyruvate) |
| --- | --- | --- | --- |
| COc1cccc2c1C(=O)c1c(O)c3c(c(O)c1C2=O)C[C@@](O)(C(=O)CO)C[C@@H]3O[C@H]1C[C@H](N)[C@H](O)[C@H](C)O1 [doxorubicin] | more sensitive | – | – |
| O=C(O)C(=O)CBr [3-BrPA, 3-bromopyruvate] | – | An increase in IC50 of rs-monolayer cells compared to the parental population | rs-monolayer cells require a higher concentration of drug |

From patent US11268068B2, “In vitro model of metastatic cancer” (THE JOHNS HOPKINS UNIVERSITY, priority 2014, dated 2022)
